Reference: paper PMC6222789, “CF3-Substituted Mollugin 2-(4-Morpholinyl)-ethyl ester as a Potential Anti-inflammatory Agent with Improved Aqueous Solubility and Metabolic Stability” (Molecules : A Journal of Synthetic Chemistry and Natural …, 2018)
pIC50: −log10 of the molar value.

Experiments:
hERG channel = biological target: T1, hERG channel (Homo sapiens, UniProt Q12809); experiment: hERG channel binding assay (fluorescence polarization)
T1 construct: purchased Invitrogen PV5365
Protocol: hERG channel binding assay was performed using Invitrogen’s hERG Fluorescence Polarization Assay kit (PV5365) with Synergy Neo plate reader (BioTek, Winooski, VT, USA). The binding assay was carried out according to the kit manufacturer’s instructions.

[1] = Determination of water solubility at 10 mM; type: physicochemical; details: aqueous buffer, thermodynamic from solid, sodium phosphate buffer 0.1 M, pH 7.4, room temperature
Protocol: Water solubility (>10 mM) was determined using the following procedure at room temperature. The test compound was added to a vial containing sodium phosphate buffer, 0.1 M, pH 7.4 (1 mL) to make a 10 mM mixture, and the mixture was equilibrated during 10 min of sonication and then visually checked immediately and after 24 h for any undissolved parts or precipitation of the sample. If no precipitation was shown after 24 h, the aqueous solution was filtered (Syringe filter; PTFE; pore size: 0.45 μm; 25 mm DI) and subjected to LC-MS to confirm the reagent.

T1 sequence (Q12809 whole entry): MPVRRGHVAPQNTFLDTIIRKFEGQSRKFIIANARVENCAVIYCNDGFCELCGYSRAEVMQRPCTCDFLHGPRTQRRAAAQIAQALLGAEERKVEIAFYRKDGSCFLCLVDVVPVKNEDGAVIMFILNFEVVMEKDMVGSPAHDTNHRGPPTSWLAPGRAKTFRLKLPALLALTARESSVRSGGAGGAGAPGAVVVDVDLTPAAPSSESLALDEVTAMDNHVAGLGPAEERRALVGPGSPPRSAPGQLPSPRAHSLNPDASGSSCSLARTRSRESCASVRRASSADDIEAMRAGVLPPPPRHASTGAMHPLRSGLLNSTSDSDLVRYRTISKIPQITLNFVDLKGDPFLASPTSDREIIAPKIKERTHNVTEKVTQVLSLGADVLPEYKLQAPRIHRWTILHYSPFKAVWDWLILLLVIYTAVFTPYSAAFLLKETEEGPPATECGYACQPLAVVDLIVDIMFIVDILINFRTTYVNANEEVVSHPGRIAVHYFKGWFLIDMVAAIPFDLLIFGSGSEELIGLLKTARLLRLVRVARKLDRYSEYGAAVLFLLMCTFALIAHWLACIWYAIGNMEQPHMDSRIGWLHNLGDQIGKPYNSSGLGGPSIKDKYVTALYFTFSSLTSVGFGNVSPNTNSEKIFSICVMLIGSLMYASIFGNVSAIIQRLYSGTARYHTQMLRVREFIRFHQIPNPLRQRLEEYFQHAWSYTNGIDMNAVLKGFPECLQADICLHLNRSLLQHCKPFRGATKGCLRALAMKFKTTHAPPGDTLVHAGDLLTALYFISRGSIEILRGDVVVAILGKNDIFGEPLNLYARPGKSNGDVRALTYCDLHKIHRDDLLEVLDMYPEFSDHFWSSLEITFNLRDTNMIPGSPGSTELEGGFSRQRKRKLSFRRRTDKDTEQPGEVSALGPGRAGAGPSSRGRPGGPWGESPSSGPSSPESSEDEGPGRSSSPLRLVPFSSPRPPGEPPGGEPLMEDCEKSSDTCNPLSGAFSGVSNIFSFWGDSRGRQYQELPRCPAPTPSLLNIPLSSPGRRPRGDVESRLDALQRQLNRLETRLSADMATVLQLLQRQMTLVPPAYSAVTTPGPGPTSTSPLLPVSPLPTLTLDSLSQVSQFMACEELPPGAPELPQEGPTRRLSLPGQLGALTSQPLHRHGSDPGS

| solubility at 24 h [1] [mM] | Compound | pIC50 (hERG channel) |
| --- | --- | --- |
| – | CC1(C)C=Cc2c(C(=O)OCCN3CCOCC3)c(O)c3ccccc3c2O1 [6d, 2-Morpholinoethyl 6-hydroxy-2,2-dimethyl-2H-benzo[h]chromene-5-carboxylate] | < 5.00 |
| > 10 | CC1(C)C=Cc2c(C(=O)OCCN3CCOCC3)c(O)c3cc(C(F)(F)F)ccc3c2O1 [15c, 2-Morpholinoethyl 6-hydroxy-2,2-dimethyl-8-(trifluoromethyl)-2H-benzo[h]chromene-5-carboxylate] | – |
